The text below walks through data of patent publication US20140158116A1, “INHIBITING TRPA1 FOR THE TREATMENT OF ASTHMA” (Cubist Pharmaceuticals, Inc., priority 2012, published 2014).

For series [1], the system named is formalin-induced pain behavior. Briefly: Formalin-induced pain behavior in vivo rodent model. Further details: species or system rat. The note with it: for # of Flinches: Table 3c, vehicle 120. From the text: The data shown in Tables 3a, 3b, and 3c and FIG. 2 were obtained by administering a pharmaceutical composition comprising the compound of Formula (Ia) to rodents in the formalin-induced pain duration at various doses according to Example 5. Specifically, the data in Tables 3a, 3b, and 3c and FIG. 2 were obtained by intraperitoneal (i.p.) administration of compositions containing different concentrations of the compound of Formula (Ia), a comparator composition containing recited amounts of the comparator compound (e.g., 150 mg/kg of the comparator compound of Formula (II) in Table 3a) and a control composition containing the vehicle (e.g., without the compound of Formula (Ia) or a comparator compound).
The compound of Formula (Ia) and the comparator compounds of Formula (II) and Formula (III) were tested in the formalin-induced pain test reported by Dubuisson et al., Pain 1977 December; 4(2):161-74 (incorporated herein by reference in its entirety). Dubuisson et al. (1977) describe a method for assessing pain and analgesia in rats and cats. Briefly, dilute formalin (50 μL of 3% formalin) is injected into the plantar surface of the hind paw. […] The individual responsible for counting the pain behaviors in a particular study is blinded to the treatment groups.
Rats were treated with the HCl salt of Compound (Ia) at various doses (3, 10, 30, and 50 mg/kg, IP) or with the vehicle (IP).

Series [2] is described as follows: 7-day repeat dose i.p. screening toxicity study in rats. The series is classed as in vivo, rat. The note with it: rats; 50 mg/kg/day i.p. for 7 consecutive days. On the procedure: The compound of Formula (Ia) was evaluated in a 7-day repeat dose screening toxicity study in female rats. In order to maximize systemic exposure, rats were administered compound of Formula (Ia) i.p. at 50 mg/kg/day for 7 consecutive days, to obtain the results shown in FIG. 6. Clinical chemistry parameters were evaluated on Days 3 and 8. Histopathology was performed on select organs including the liver, kidney, spleen, and lung.

For the next series, the target named is rTRPA1 (Rattus norvegicus, UniProt Q6RI86). Briefly: Whole-cell patch clamp block of inward current through rTRPA1. The note with it: class symbol; read-out: Potency (IC50) Rat. The series is classed as cell-based. On the procedure:
(§1) Data for TRPA1 inhibition and the selectivity of TRPA1 inhibition was obtained by this method for the compound of Formula (Ia) and included in Table 1 and Table 2. All currents were recorded in whole-cell configuration using EPC-9 and EPC-10 amplifiers and Patchmaster software (HEKA). […] The standard pipette solution consisted of 140 mM CsAsp, 10 mM EGTA, 10 mM HEPES, 2.27 mM MgCl2, 1.91 mM CaCl2, 4 mM MgATP, and 0.1-0.3 mM Na2GTP, with pH adjusted to 7.2 with CsOH. In addition, a solution containing 145 mM CsCl, 10 mM HEPES, 10 mM EGTA and 1 mM MgCl2 (pH 7.2 adjusted with CsOH) can be used. The standard bath solution contained 150 mM NaCl, 10 mM HEPES, 10 mM glucose, 4.5 mM KCl, 1 mM EGTA, 3 mM MgCl2, with pH adjusted to 7.4 with NaOH. In some instances, 2 mM CaCl2 was added in place of EGTA and the concentration of MgCl2 was reduced to 1 mM.
(§2) Data were collected either by continuous recordings at −60 mV or by applying voltage ramps from a holding potential of 0 mV every 4 s. Continuous recordings were collected at 400 Hz and digitally filtered off-line at 10 Hz for presentation. Voltage ramps were applied from −100 mV to 100 mV over the course of 400 ms, and data were collected at 10 kHz and filtered at 2.9 kHz. Inward and outward currents were analyzed from the ramps at −80 and 80 mV, respectively. Liquid junction potential correction was not used.
(§3) Solutions were switched using a gravity-fed continuous focal perfusion system. To achieve rapid temperature changes, two temperature control and perfusion systems were employed simultaneously. For temperatures ≧22° C., a Warner Instruments bipolar temperature controller (TC-344B) and inline heater (SHM-8) were used. […] Temperatures were confirmed using a thermistor (Warner Instruments, TA-29), with temperatures at the recorded cell estimated to be within +/−2° C. of those reported.
(§4) IC50 of compounds was estimated by testing each compound at 5 micromolar and 500 nanomolar. […] IC50 for compounds between 500 nanomolar and 5 micromolar was similarly estimated. […]

For series [3], the target named is T1, hTRPA1 (Homo sapiens, UniProt O75762). Kind of series: Whole-cell patch clamp block of inward current through hTRPA1. The series is classed as cell-based. On the procedure:
as §1, §2, §3
IC50 of compounds was estimated by testing each compound at 5 micromolar and 500 nanomolar. […] IC50 for compounds between 500 nanomolar and 5 micromolar was similarly estimated. Compounds blocking 50% or more at 500 nanomolar are retested at multiple concentrations, and the % block at each is fitted by standard equations to determine IC50 accurately using a 5-6 point concentration/response experiment.
Background: The patch-clamp technique gives a direct electrical read-out from membranes.

The target in the next series is dTRPA1 (Canis lupus familiaris, UniProt A0A8I3Q1Q7). Kind of series: Whole-cell patch clamp block of inward current through dTRPA1. The series is classed as cell-based, Dog. The note with it: class symbol; read-out: Potency (IC50) Dog. On the procedure:
as §1, §2, §3, §4

For series [4], the system named is serum biomarkers of hepatotoxicity (ALT, AST, ALP, GGT). Kind of series: Hepatotoxicity serum biomarker study in dogs, oral dose. The series is classed as in vivo, dog. The note with it: for ALT level elevation: single PO dose of 50 mg/kg. On the procedure: The compound of Formula (Ia) was orally dosed to […] at dose levels of 5, 15 or 50 mg/kg using 30% Sulfobutylether β-cyclodextrin as the vehicle for assessment of safety as measured via serum chemistry biomarkers of hepatotoxicity or bile duct injury FIG. 5A, showing measurements of alanine aminotranferease [ALT], aspartate aminotranferease [AST], alkaline phosphatase [ALP] and gamma-glutamyl transferase [GGT] in the dogs at each dose level (each bar represents a measurement from 1 dog in the study). […] For example, the ALT levels were elevated up to about 60-fold in male dogs and up to about 130-fold in female beagle dogs following a single PO dose of 50 mg/kg.

Series [5] can be described thus: Human plasma protein binding by equilibrium dialysis. The series is classed as in vitro ADME. The note with it: percentage bound. On the procedure:
The amount of compound in buffer (free fraction) and the amount of compound associated with the plasma fraction is determined by equilibrium dialysis; the amount of compound bound is expressed as a percentage. (Banker et al., Journal of Pharmaceutical Sciences (2003) 92(5): 967-74.)
On the technique in general: Equilibrium dialysis compares concentrations on both sides of a semipermeable membrane.

A short description of series [6]: Oral bioavailability pharmacokinetic study. The series is classed as in vivo. The note with it: rat, plasma, PO versus IV. On the procedure: The potency and pharmacokinetic (PK) properties of (a) the compound of Formula (Ia); and (b) comparator compound of Formula (III) were evaluated. Bioavailability was measured as well. A pharmacokinetic study was performed to obtain a plasma drug concentration vs time plot for the drug after both intravenous (IV) and oral (PO) administration. The absolute bioavailability is the dose-corrected area under curve (AUC) non-intravenous divided by AUC intravenous. The formula for calculating F for a drug administered by the oral route (PO) is given below.
The bioavailability was calculated using the equation shown below:
% F=AUC PO×Dose IV/AUC IV×Dose PO

Series [7] concerns CFA-induced cold allodynia. Briefly: Complete Freund's Adjuvant (CFA) cold allodynia rodent pain model. The series is classed as in vivo. The note with it: 150 mg/kg; vehicle 19.8. On the procedure:
The compound of Formula (Ia) is also active in rodent models of pain in vivo induced by cold allodynia following chronic Complete Freund's Adjuvant-induced inflammation, as described in Example 6. […] The compound of Formula (Ia), the comparator compound of Formula (II) and ketoprofen were tested by the CFA-induced pain test method reported in del Camino et al., J. Neurosci., 30(45):15165-15174, incorporated herein by reference in its entirety. Briefly, the hind paw was sensitized to cold temperature (allodynic), by administering 0.1 mL of Complete Freund's Adjuvant (CFA) to the left hind paw. 2-3 days later, the time taken for the animal to lift its CFA-injected paw was recorded compared to its un-injected normal right hind paw. […] To avoid tissue damage the maximum cut-off time was 5 minutes. Animals that were allodynic (average PWL to the first three pain behaviors <150 seconds for the CFA-injected hind paw: ˜≧50% difference between the normal and CFA-injected paw) were included in the study and subsequently randomized across treatment groups. The following day, the animals were dosed under blinded conditions. Following the 1-2 hour pre-treatment time, the post-dose PWL readings were again taken. The efficacy of the drug treatment was assessed by comparing the PWL in the drug treatment animals to those animals that received the vehicle.

The target of series [8] is T1, hTRPA1. Kind of series: hTrpA1 IC50 measured in 1% RSA (rat serum albumin). The series is classed as cell-based.
Where [9] appears, read: hTRPA1, Human, current activation 10 micromolar AITC, whole cell patch, read-out: IC50 Inward current.

What is called IC50 is the midpoint of a concentration-inhibition curve. For orientation: fraction unbound means the share of the substance not bound to proteins or other matrix. A higher fraction unbound goes with weak binding. For orientation: bioavailability means dose-corrected exposure relative to a reference, in per cent.

Structures are written as SMILES. Read-outs that look alike come from different tables or passages of the source.

T1 sequence (O75762 whole entry): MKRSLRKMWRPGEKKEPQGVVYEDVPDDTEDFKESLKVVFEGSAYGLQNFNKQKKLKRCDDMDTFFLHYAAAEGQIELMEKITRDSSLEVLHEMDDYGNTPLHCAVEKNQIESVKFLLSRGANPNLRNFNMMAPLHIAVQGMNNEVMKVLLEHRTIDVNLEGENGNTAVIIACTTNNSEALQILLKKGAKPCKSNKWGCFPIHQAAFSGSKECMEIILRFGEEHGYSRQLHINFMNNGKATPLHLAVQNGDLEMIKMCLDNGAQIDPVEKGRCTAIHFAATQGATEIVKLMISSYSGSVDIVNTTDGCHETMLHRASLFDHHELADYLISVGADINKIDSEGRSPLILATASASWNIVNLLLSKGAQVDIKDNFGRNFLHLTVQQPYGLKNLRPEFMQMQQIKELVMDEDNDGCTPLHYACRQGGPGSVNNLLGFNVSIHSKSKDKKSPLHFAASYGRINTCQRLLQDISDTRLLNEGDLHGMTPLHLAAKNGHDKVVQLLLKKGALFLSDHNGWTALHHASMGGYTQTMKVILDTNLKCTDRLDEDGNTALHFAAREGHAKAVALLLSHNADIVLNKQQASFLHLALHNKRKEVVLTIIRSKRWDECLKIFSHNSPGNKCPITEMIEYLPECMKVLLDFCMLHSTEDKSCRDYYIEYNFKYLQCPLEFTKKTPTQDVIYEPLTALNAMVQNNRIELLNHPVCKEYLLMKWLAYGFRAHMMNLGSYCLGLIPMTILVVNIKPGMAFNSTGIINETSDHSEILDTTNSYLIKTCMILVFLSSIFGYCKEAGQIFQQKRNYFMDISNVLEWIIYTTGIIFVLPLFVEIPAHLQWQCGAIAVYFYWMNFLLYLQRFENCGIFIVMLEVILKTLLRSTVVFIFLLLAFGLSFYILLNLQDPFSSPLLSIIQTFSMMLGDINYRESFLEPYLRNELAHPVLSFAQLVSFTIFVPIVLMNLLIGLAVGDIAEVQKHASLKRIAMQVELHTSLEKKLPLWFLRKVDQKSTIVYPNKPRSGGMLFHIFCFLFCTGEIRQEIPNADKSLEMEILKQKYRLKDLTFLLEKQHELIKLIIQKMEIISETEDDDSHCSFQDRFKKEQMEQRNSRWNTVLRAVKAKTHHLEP
Sequence of dTRPA1 (A0A8I3Q1Q7 1-1118): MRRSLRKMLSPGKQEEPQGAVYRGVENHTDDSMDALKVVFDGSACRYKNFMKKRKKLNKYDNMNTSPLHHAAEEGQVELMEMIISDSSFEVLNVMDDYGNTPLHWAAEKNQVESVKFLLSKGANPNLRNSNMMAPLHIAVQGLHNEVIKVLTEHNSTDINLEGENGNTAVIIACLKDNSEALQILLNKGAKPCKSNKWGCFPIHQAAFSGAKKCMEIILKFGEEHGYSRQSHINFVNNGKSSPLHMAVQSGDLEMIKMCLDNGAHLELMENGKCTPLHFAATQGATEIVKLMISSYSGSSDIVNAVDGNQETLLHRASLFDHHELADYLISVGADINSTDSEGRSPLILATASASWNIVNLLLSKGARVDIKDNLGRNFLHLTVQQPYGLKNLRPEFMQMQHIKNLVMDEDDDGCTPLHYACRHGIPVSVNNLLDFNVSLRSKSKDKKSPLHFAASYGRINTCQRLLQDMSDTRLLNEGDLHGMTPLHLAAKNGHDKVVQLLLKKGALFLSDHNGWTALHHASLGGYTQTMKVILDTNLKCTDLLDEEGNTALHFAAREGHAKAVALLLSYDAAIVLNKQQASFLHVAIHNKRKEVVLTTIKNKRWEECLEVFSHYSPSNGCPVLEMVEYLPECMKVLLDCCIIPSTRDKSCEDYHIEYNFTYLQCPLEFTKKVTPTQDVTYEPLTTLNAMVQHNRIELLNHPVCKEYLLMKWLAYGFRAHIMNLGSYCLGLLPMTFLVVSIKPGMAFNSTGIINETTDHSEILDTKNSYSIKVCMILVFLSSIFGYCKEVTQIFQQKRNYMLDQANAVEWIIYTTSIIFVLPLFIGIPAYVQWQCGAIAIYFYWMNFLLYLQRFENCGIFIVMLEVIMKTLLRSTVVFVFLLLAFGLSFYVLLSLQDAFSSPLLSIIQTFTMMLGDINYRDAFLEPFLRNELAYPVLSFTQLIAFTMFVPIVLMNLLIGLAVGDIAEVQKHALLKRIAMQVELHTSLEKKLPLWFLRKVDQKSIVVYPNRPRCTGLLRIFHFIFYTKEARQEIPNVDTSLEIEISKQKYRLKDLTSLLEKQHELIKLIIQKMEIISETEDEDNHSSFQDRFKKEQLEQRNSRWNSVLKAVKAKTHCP
Sequence of rTRPA1 (Q6RI86 whole entry): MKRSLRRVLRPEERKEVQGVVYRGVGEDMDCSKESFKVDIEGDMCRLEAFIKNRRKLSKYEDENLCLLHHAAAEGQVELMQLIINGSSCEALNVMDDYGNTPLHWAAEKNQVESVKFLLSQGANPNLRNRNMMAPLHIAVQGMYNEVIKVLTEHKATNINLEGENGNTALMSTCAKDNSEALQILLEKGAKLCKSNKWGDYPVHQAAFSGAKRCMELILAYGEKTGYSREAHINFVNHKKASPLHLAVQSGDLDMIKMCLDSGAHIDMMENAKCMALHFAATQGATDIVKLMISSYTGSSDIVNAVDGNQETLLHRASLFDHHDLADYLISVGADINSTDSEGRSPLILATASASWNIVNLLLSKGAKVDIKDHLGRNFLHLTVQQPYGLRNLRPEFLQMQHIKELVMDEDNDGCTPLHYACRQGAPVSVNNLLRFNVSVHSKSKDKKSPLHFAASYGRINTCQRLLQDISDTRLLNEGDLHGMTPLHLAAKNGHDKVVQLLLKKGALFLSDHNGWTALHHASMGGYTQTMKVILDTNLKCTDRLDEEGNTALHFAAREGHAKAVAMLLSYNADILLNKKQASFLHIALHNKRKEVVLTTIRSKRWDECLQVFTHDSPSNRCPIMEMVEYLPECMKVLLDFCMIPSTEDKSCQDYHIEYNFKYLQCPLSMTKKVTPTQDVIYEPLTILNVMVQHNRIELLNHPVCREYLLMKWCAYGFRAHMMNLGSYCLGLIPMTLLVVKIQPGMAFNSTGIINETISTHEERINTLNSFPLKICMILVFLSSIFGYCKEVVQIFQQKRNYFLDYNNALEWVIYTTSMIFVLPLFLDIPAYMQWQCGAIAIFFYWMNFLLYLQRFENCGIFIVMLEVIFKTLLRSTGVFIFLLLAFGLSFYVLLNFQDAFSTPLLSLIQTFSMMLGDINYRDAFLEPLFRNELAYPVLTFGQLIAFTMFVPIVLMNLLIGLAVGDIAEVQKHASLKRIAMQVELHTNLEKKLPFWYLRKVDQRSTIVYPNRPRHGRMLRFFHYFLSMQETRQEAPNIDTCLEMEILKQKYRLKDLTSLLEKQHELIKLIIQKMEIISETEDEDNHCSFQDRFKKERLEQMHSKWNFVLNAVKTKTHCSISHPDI

Take `NCC1(CC(=O)O)CCCCC1` [Gabapentin]: the “# of Flinches” value in series [1] (reference, dose not given) is given as 75.
On to `C[C@H]1CCCN1c1ccc(-c2csc(NC(=O)Cn3cnc4c3c(=O)n(C)c(=O)n4C)n2)cc1F` [Formula (III), reference compound], for which the “effect on serum biomarkers of hepatotoxicity” value in series [2] was “did elevate serum biomarkers of hepatotoxicity as compared to Formula (Ia)”; in series [4] (dogs, 50 mg/kg PO), “did elevate serum biomarkers of hepatotoxicity”. Moreover, the IC50 at rTRPA1 was 50 to 100 nM; on hTRPA1 [3] (setting [9]), under 25 nM; at hTRPA1 [3] (hTRPA1, class symbol, read-out: Potency (IC50) Human), under 25 nM; at dTRPA1, under 25 nM. In addition, in series [1] (50 mg/kg, Table 3b, vehicle 77.2), the “Duration of Pain Behavior” value worked out at 44.3 s. Also, the ALT level elevation result is on record as “up to 130 fold” in [4] (female beagle dogs) and “up to 60 fold” in [4] (male dogs). In series [5], this molecule came in with a fraction unbound of under 0.01. Moreover, the bioavailability fell in the range of 1 to 25% in [6] (oral, fed rats, read-out: Bioavailability (Rat) Fed); 25 to 50% in series [6] (po, fasted rats, read-out: Bioavailability (Rat) Fasted); 1 to 25% in [6] (po, fed rats, read-out: Bioavailability (Rat) Fed).
Turning to `CC(C)c1ccc(NC(=O)Cn2cnc3c2c(=O)n(C)c(=O)n3C)cc1` [Formula (II)], the entries for the “# of Flinches” value in [1] (30 mg/kg), in series [1] (100 mg/kg) and in series [1] (300 mg/kg) were 88, 62 and 43, respectively. Further, the “Duration of Pain Behavior” value in series [1] (150 mg/kg, Table 3a, vehicle 88.6) turned out to be 40.0 s. Further, the “Change in Paw Withdrawal Latency” value in series [7] is recorded as 142.2.
Consider `C[C@@H]1CCCN1c1ncc(-c2cccc(NC(=O)Cn3cnc4c3c(=O)n(C)c(=O)n4C)n2)cn1` [Formula (Ib)], for which the results for the IC50 on hTRPA1 [3] (setting [9]) and against hTRPA1 [8] were 77 nM and 15200 nM, respectively.
